Results on 22 compounds are retold here after patent publication US20260297070A1, “CYCLIC [COMPOUND LEFT OUT] WRN INHIBITORS” (Nimbus Wadjet, Inc., priority 2023, published 2026).

pIC50: −log10 of the molar value.

The target of the assay is T1, human Werner helicase (WRN-BV08, Uniprot Q14191, amino acids 517-1235 with L1074F point mutation) (Homo sapiens, UniProt Q14191, L1074F).
T1 construct: Uniprot Q14191, amino acids 517-1235 with L1074F point mutation; TEV-cleavable 8×His (C, cleaved yes); made in house; host or cells: Sf9 insect cells (baculovirus)
T1 sequence (Q14191 with tags, fused parts or gaps L1074F limits assumed): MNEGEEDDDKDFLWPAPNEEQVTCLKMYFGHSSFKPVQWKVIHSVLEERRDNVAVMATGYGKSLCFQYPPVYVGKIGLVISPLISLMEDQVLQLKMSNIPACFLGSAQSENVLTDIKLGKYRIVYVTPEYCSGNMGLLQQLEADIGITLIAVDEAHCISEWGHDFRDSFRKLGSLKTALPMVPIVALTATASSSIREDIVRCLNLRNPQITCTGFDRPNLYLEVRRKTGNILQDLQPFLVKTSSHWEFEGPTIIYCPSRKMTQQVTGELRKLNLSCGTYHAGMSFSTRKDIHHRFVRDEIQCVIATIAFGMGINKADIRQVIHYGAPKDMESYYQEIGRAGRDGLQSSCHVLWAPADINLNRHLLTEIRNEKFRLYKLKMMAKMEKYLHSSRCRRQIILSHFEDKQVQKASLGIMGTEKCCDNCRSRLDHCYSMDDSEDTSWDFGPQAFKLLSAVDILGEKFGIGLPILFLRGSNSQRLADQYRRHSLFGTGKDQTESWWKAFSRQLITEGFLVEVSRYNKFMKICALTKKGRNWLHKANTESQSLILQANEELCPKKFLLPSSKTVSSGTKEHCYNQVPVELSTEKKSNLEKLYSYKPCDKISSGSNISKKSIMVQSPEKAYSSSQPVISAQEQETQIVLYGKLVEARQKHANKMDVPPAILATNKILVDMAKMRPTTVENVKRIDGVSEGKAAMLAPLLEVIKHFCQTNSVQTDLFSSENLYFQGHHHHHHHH
The experiment in a line: WRN (BV08) ADP-Glo Assay. The class given is biochemical. The settings on record: 0.15 nM WRN, 5 μM ATP, 0.1 nM DNA duplex, 15 min preincubation, 60 min at 25° C., pH 7.5, 1% DMSO; read-out: ADP-Glo_hWRN_IC50. The method, boiled down:
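Helicase ATPase activity is measured at 25 °C over 60 min using 0.15 nM enzyme, 5 μM ATP and 0.1 nM DNA duplex, final DMSO 1%. ADP production is detected by luminescence, with IC50 derived by curve fitting.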
In general terms: ADP-Glo first removes unused ATP, then detects ADP through luciferase.

Take `COc1cc(CN(C(=O)Cc2ccc(S(F)(F)(F)(F)F)cc2)C2C=CS(=O)(=O)C2)nc(N(C)C)n1` (stereo not shown) [I-635, N-{[2-(dimethylamino)-6-methoxypyrimidin-4-yl]methyl}-N-(1,1-dioxo-2,3-dihydro-1lambda6-thiophen-3-yl)-2-[4-(pentafluoro-lambda6-sulfanyl)phenyl]acetamide]: the pIC50 was 5.30 to 6.30.

On to `COc1ccc2c(c1)CC(C(=O)N(Cc1ccncc1)C1C=CS(=O)(=O)C1)CO2` (stereo not shown) [I-756, N-(1,1-dioxo-2,3-dihydro-1lambda6-thiophen-3-yl)-6-methoxy-N-[(pyridin-4-yl)methyl]-3,4-dihydro-2H-1-benzopyran-3-carboxamide], for which the pIC50 is less than 4.30.

With `O=C(Cc1ccc(-n2cccc2)cc1)N(Cc1cccc(O)c1)C1C=CS(=O)(=O)C1` (stereo not shown) [I-292, N-(1,1-dioxo-2,3-dihydro-1lambda6-thiophen-3-yl)-N-[(3-hydroxyphenyl)methyl]-2-[4-(1H-pyrrol-1-yl)phenyl]acetamide], the pIC50 is 4.30 to 5.00.

For the compound `O=C(Cc1ccc(-n2cccc2)cc1)N(CC1CCOCC1)C1C=CS(=O)(=O)C1` (stereo not shown) [I-485, N-(1,1-dioxo-2,3-dihydro-1lambda6-thiophen-3-yl)-N-[(oxan-4-yl)methyl]-2-[4-(1H-pyrrol-1-yl)phenyl]acetamide], the pIC50 was less than 4.30.

Take `O=C(Cc1cc(-c2ccccc2)n[nH]1)N(Cc1ccncc1)C1C=CS(=O)(=O)C1` (stereo not shown) [I-289, N-(1,1-dioxo-2,3-dihydro-1lambda6-thiophen-3-yl)-2-(3-phenyl-1H-pyrazol-5-yl)-N-[(pyridin-4-yl)methyl]acetamide]: the pIC50 is 4.30 to 5.00.

As for `COc1cc(CN(C(=O)C2CNc3cc(-c4ccc(F)cc4)ccc32)C2C=CS(=O)(=O)C2)ccn1` (stereo not shown) [I-121, N-(1,1-dioxo-2,3-dihydro-1lambda6-thiophen-3-yl)-6-(4-fluorophenyl)-N-[(2-methoxypyridin-4-yl)methyl]-2,3-dihydro-1H-indole-3-carboxamide], the pIC50 is 5.30 to 6.30.

Consider `CN(C)C(=O)C(C(=O)N(Cc1nc(C2CC2)cs1)C1C=CS(=O)(=O)C1)c1ccc(S(F)(F)(F)(F)F)cc1` (stereo not shown) [I-107, N′-[(4-cyclopropyl-1,3-thiazol-2-yl)methyl]-N′-(1,1-dioxo-2,3-dihydro-1lambda6-thiophen-3-yl)-N,N-dimethyl-2-[4-(pentafluoro-lambda6-sulfanyl)phenyl]propanediamide], for which the pIC50 is 5.30 to 6.30.

Turning to `COc1cnn(C(C(=O)N(Cc2ccnc(OC)c2)[C@@H]2C=CS(=O)(=O)C2)c2ccc(-c3ccc(F)c(F)c3)cc2F)c1` (stereo partly drawn) [I-748, N-[(3R)-1,1-dioxo-2,3-dihydro-1lambda6-thiophen-3-yl]-2-(4-methoxy-1H-pyrazol-1-yl)-N-[(2-methoxypyridin-4-yl)methyl]-2-{3,3′,4′-trifluoro-[1,1′-biphenyl]-4-yl}acetamide], the pIC50 is greater than 6.30.

For the compound `CC(C)(O)c1cc(CN(C(=O)Cc2ccc(-n3cccc3)cc2F)C2C=CS(=O)(=O)C2)ccn1` (single isomer, unassigned) [I-469], the pIC50 is less than 4.30.

Consider `O=C1Nc2cc(C(F)(F)F)ccc2SC1CC(=O)N(Cc1ccncc1)C1C=CS(=O)(=O)C1` (stereo not shown) [I-231, N-(1,1-dioxo-2,3-dihydro-1lambda6-thiophen-3-yl)-2-[3-oxo-6-(trifluoromethyl)-3,4-dihydro-2H-1,4-benzothiazin-2-yl]-N-[(pyridin-4-yl)methyl]acetamide], for which the pIC50 is 5.00 to 5.30.

`COc1ccc(CN(C(=O)Cc2ccc(-n3cccc3)cc2)C2C=CS(=O)(=O)C2)cc1` (stereo not shown) [I-219, N-(1,1-dioxo-2,3-dihydro-1lambda6-thiophen-3-yl)-N-[(4-methoxyphenyl)methyl]-2-[4-(1H-pyrrol-1-yl)phenyl]acetamide]: the pIC50 was 5.00 to 5.30.

Take `CC(C)(O)c1cc(CN(C(=O)Cn2ncc3cc(S(F)(F)(F)(F)F)ccc32)C2C=CS(=O)(=O)C2)ccn1` (single isomer, unassigned) [I-727]: the pIC50 is 5.30 to 6.30.

Turning to `O=C(Cn1cc(-c2ccc(F)cc2)cn1)N(Cc1nc(C2CC2)cs1)C1C=CS(=O)(=O)C1` (single isomer, unassigned) [I-601], the pIC50 is 5.30 to 6.30.

As for `CC(C)Oc1ccc(CC(=O)N(Cc2ccncc2)C2C=CS(=O)(=O)C2)cc1` (stereo not shown) [I-365, N-(1,1-dioxo-2,3-dihydro-1lambda6-thiophen-3-yl)-2-[4-(propan-2-yloxy)phenyl]-N-[(pyridin-4-yl)methyl]acetamide], the pIC50 was 4.30 to 5.00.

In the case of `COc1cc(CN(C(=O)C2CCc3c([nH]c4cccc(Cl)c34)C2)[C@@H]2C=CS(=O)(=O)C2)ccn1` (stereo partly drawn) [I-785, 5-chloro-N-[(3R)-1,1-dioxo-2,3-dihydro-1lambda6-thiophen-3-yl]-N-[(2-methoxypyridin-4-yl)methyl]-2,3,4,9-tetrahydro-1H-carbazole-2-carboxamide], the pIC50 was less than 4.30.

As to `O=C(Cc1ccc(-c2ccc(F)cc2)cc1)N(Cc1nc(C2CC2)cs1)C1C=CS(=O)(=O)C1` (stereo not shown) [I-88, N-[(4-cyclopropyl-1,3-thiazol-2-yl)methyl]-N-(1,1-dioxo-2,3-dihydro-1lambda6-thiophen-3-yl)-2-{4′-fluoro-[1,1′-biphenyl]-4-yl}acetamide], the pIC50 was 5.30 to 6.30.

Regarding `CN(C)C(=O)C(C(=O)N(Cc1ccnc(C(C)(C)O)c1)C1C=CS(=O)(=O)C1)c1ccc(-c2ccc(F)cc2)cc1` (single isomer, unassigned) [I-309, (2R**)-N-[(3R*)-1,1-dioxo-2,3-dihydro-1lambda6-thiophen-3-yl]-2-{4′-fluoro-[1,1′-biphenyl]-4-yl}-N-{[2-(2-hydroxypropan-2-yl)pyridin-4-yl]methyl}-N′,N′-dimethylpropanediamide], the pIC50 was 4.30 to 5.00.

With `O=C(Cc1ccc(-n2cccc2)cc1)N(Cc1cccc(F)c1)C1C=CS(=O)(=O)C1` (stereo not shown) [I-270, N-(1,1-dioxo-2,3-dihydro-1lambda6-thiophen-3-yl)-N-[(3-fluorophenyl)methyl]-2-[4-(1H-pyrrol-1-yl)phenyl]acetamide], the pIC50 was 5.00 to 5.30.

For `O=C(Cc1ccc(-n2cccc2)cc1)N(Cc1c(F)cccc1F)C1C=CS(=O)(=O)C1` (stereo not shown) [I-294, N-[(2,6-difluorophenyl)methyl]-N-(1,1-dioxo-2,3-dihydro-1lambda6-thiophen-3-yl)-2-[4-(1H-pyrrol-1-yl)phenyl]acetamide], the pIC50 was 4.30 to 5.00.

For the compound `O=C(Cn1cc(-c2cc(F)c(F)c(F)c2)cn1)N(Cc1cc(C2CC2)ns1)C1C=CS(=O)(=O)C1` (stereo not shown) [I-824, N-[(3-cyclopropyl-1,2-thiazol-5-yl)methyl]-N-(1,1-dioxo-2,3-dihydro-1lambda6-thiophen-3-yl)-2-[4-(3,4,5-trifluorophenyl)-1H-pyrazol-1-yl]acetamide], the pIC50 is greater than 6.30.

As to `O=C(Cc1ccc(C2CC(F)(F)C2)cc1)N(Cc1ccncc1)C1C=CS(=O)(=O)C1` (stereo not shown) [I-359, 2-[4-(3,3-difluorocyclobutyl)phenyl]-N-(1,1-dioxo-2,3-dihydro-1lambda6-thiophen-3-yl)-N-[(pyridin-4-yl)methyl]acetamide], the pIC50 is 4.30 to 5.00.

`COc1ccc(CN(C(=O)Cn2cc(-c3ccc(F)c(F)c3)cn2)C2C=CS(=O)(=O)C2)cn1` (stereo not shown) [I-762, 2-[4-(3,4-difluorophenyl)-1H-pyrazol-1-yl]-N-(1,1-dioxo-2,3-dihydro-1lambda6-thiophen-3-yl)-N-[(6-methoxypyridin-3-yl)methyl]acetamide]: the pIC50 was 5.30 to 6.30.
